Patent US5808139A (Ligand Pharmaceuticals Incorporated, priority 1994, dated 1998)

Key:
[1] = test system: endometrium of the uterus; assay: Decidualization assay in pseudopregnant mice, oil-induced uterine weight gain; format: in vivo; conditions: 0.1 mg
Procedure: A successful pregnancy requires not only the effective collision and fusion of egg and spermatozoon, but also the provision of a receptive and supportive uterus. The preparation of the endometrium of the uterus for implantation (i.e. decidualization) starts well before the blastocyst arrives in the uterus.
Psuedopregnant mice (i.e. mated with vasectomized males) were used to establish the assay system. […] At 16 hours of Day 4, a small volume of sesame oil (10 μl) was introduced to the lumen of the right uterine horn to serve as a decidual stimulus. The left horn was left undisturbed to serve as an internal control. Autopsies were performed on Day 7 to assess uterine wet weight gains in the stimulated versus non-stimulated uterine horns.
Each of these compounds was intraluminally administered in an appropriate dosage on Day 4 along with the sesame oil administration.

[2] = test system: glucocorticoid, mineralocorticoid, androgen, estrogen, and retinoic acid receptors; orphan receptors; assay: Cross-reactivity with other known intracellular receptor classes; format: cell-based
Procedure: Compound SO-9 was also tested with orphan receptors (which are receptors whose natural ligand is unknown).
The 3R and 3S diastereomeric acetates of cyclocymopol monomethyl ether were also individually tested for cross reactivity with the other known intracellular receptor classes. […] No antagonist activity was detected with either compound.

[3] = test system: progesterone receptor (T47D cells); assay: Antagonist assay in T47D (human breast cancer) cells (Tables 1 and 2); format: cell-based

| SMILES | Blocking of decidualization weight gain (in words) [1] | Net Uterine Weight Gain ([1]; intraluminal, autopsy Day 7, oil alone control 334.7 +/- 41.0) | Cross-reactivity with other intracellular receptors [2] | Efficacy (% maximal response relative to RU-486), T47D cells ([3]; antagonist activity, relative to RU-486) | IC50 ([3]; concentration required to reduce the maximal response by 50%, read-out: Potency (IC50), T47D cells) |
| --- | --- | --- | --- | --- | --- |
| CC#C[C@]1(O)CC[C@H]2[C@@H]3CCC4=CC(=O)CCC4=C3[C@@H](c3ccc(N(C)C)cc3)C[C@@]21C [RU-486, reference compound] | completely blocked this decidualization weight gain | 9.53 ± 3.51 mg | – | – | – |
| C=C1CC[C@@H](Br)C(C)(C)[C@@H]1Cc1cc(OC)c(Br)cc1O [SO-53, (3R)-cyclocymopol monomethyl ether] | – | – | not to cross-react with any of the other receptors | 85% | 385 nM |
